Reference: patent US12527325B2, “Pesticidally active diazine-amide compounds” (SYNGENTA CROP PROTECTION AG, priority 2019, dated 2026)

Assays:
Assay type in all cases: in vivo
Euschistus heros = test: Example B2: Euschistus heros (Neotropical Brown Stink Bug); details: 120 h, application rate of 200 ppm, sprayed soybean leaves, N2 nymphs, 5 days after infestation, read-out: control in at least one of the two categories (mortality or growth inhibition)
Method: Example B2: Euschistus heros (Neotropical Brown Stink Bug)
Soybean leaves on agar in 24-well microtiter plates were sprayed with aqueous test solutions prepared from 10′000 ppm DMSO stock solutions. After drying the leaves were infested with N2 nymphs. The samples were assessed for mortality and growth inhibition in comparison to untreated samples 5 days after infestation.

[1] = tested on: Frankliniella occidentalis; test: Example B3: Frankliniella occidentalis (Western Flower Thrips): Feeding/Contact Activity; details: foliar, 168 h, application rate of 200 ppm, sprayed sunflower leaf discs, population of mixed ages, 7 days after infestation
Method: Example B3: Frankliniella occidentalis (Western Flower Thrips): Feeding/Contact Activity
Sunflower leaf discs were placed on agar in 24-well microtiter plates and sprayed with aqueous test solutions prepared from […] stock solutions. After drying the leaf discs were infested with a Frankliniella population of mixed ages. The samples were assessed for mortality 7 days after infestation.

Chilo suppressalis = test: Example B4: Chilo suppressalis (Striped Rice Stemborer); details: 144 h, application rate of 200 ppm, artificial diet, L2 larvae, 6 days after infestation, read-out: control in at least one of the three categories (mortality, anti-feedant or growth inhibition)
How it was run: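 Artificial diet was treated with aqueous dilutions made from 10'000 ppm DMSO stocks, dried, then infested with L2 larvae at 6–8 per well. Mortality, antifeedant effect and growth inhibition were assessed against untreated samples 6 days after infestation.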

Plutella xylostella [2] = test: Example B5: Plutella xylostella (Diamond Back Moth); details: 192 h, application rate of 200 ppm, 24-well artificial diet, eggs, 8 days after infestation, read-out: control in at least one of the two categories (mortality or growth inhibition)
Method: Example B5: Plutella xylostella (Diamond Back Moth)
24-well microtiter plates with artificial diet were treated with aqueous test solutions prepared from 10′000 ppm DMSO stock solutions by pipetting. After drying, Plutella eggs were pipetted through a plastic stencil onto a gel blotting paper and the plate was closed with it. The samples were assessed for mortality and growth inhibition in comparison to untreated samples 8 days after infestation.

Myzus persicae [3] = test: Example B7: Myzus persicae (Green Peach Aphid): Systemic Activity; details: 144 h, test rate of 24 ppm, roots of pea seedlings in test solution, 6 days
Method: Example B7: Myzus persicae (Green Peach Aphid): Systemic Activity
Roots of pea seedlings infested with an aphid population of mixed ages were placed directly into aqueous test solutions prepared from 10′000 DMSO stock solutions. The samples were assessed for mortality 6 days after placing seedlings into test solutions.

Myzus persicae [4] = test: Example B8: Myzus persicae (Green Peach Aphid): Intrinsic Activity; details: 120 h, test rate of 12 ppm, 24-well sucrose solution under Parafilm, 5 days after infestation
Excerpt: Example B8: Myzus persicae (Green Peach Aphid): Intrinsic Activity
Test compounds prepared from 10′000 ppm DMSO stock solutions were applied by pipette into 24-well microtiter plates and mixed with sucrose solution. The plates were closed with a stretched Parafilm. A plastic stencil with 24 holes was placed onto the plate and infested pea seedlings were placed directly on the Parafilm. The infested plate was closed with a gel blotting paper and another plastic stencil and then turned upside down. The samples were assessed for mortality 5 days after infestation.

Diabrotica balteata = test: Example B1: Diabrotica balteata (Corn Root Worm); details: 96 h, application rate of 200 ppm, sprayed maize sprouts, L2 larvae, 4 days after infestation, read-out: control in at least one of the two categories (mortality or growth inhibition)
Method: Example B1: Diabrotica balteata (Corn Root Worm)
Maize sprouts placed onto an agar layer in 24-well microtiter plates were treated with aqueous test solutions prepared from 10′000 ppm DMSO stock solutions by spraying. After drying, the plates were infested with L2 larvae (6 to 10 per well). The samples were assessed for mortality and growth inhibition in comparison to untreated samples 4 days after infestation.

Spodoptera littoralis = test: Example B9: Spodoptera littoralis (Egyptian Cotton Leaf Worm), cotton leaf disc spray; details: foliar, 72 h, application rate of 200 ppm, sprayed cotton leaf discs, L1 larvae, 3 days after infestation, read-out: control in at least one of the three categories (mortality, anti-feedant or growth inhibition)
Myzus persicae [5] = test: Example B11: Myzus persicae (Green Peach Aphid), 96-well sucrose solution; details: 120 h, application rate of 50 ppm, 96-well sucrose solution under Parafilm, 5 days after infestation
Excerpt: Example B11: Myzus persicae (Green Peach Aphid)
Test compounds prepared from 10′000 ppm DMSO stock solutions were applied by a liquid handling robot into 96-well microtiter plates and mixed with a sucrose solution. Parafilm was stretched over the 96-well microtiter plate and a plastic stencil with 96 holes was placed onto the plate. Aphids were sieved into the wells directly onto the Parafilm. The infested plates were closed with a gel blotting card and a second plastic stencil and then turned upside down. The samples were assessed for mortality 5 days after infestation.

Plutella xylostella [6] = test: Example B12: Plutella xylostella (Diamondback Moth), 96-well artificial diet; details: 216 h, application rate of 500 ppm, eggs, 9 days after infestation
Method: Example B12: Plutella xylostella (Diamondback Moth)
96-well microtiter plates containing artificial diet were treated with aqueous test solutions, prepared from 10′000 ppm DMSO stock solutions, by a liquid handling robot. After drying, eggs (˜30 per well) were infested onto a netted lid which was suspended above the diet. The eggs hatch and L1 larvae move down to the diet. The samples were assessed for mortality 9 days after infestation.

Myzus persicae [7] = test: Example B6: Myzus persicae (Green Peach Aphid): Feeding/Contact Activity; details: foliar, 144 h, application rate of 200 ppm, sprayed sunflower leaf discs, aphid population of mixed ages, 6 days after infestation
Method: Example B6: Myzus persicae (Green Peach Aphid): Feeding/Contact Activity
Sunflower leaf discs were placed onto agar in a 24-well microtiter plate and sprayed with aqueous test solutions prepared from 10′000 ppm DMSO stock solutions. After drying, the leaf discs were infested with an aphid population of mixed ages. The samples were assessed for mortality 6 days after infestation.

CC(NC(=O)c1cc(C(F)(F)F)cc(S(=O)(=O)C2CC2)c1)c1nccnc1-c1ncccn1 (stereo not shown) [P10, 3-cyclopropylsulfonyl-N-[1-(3-pyrimidin-2-ylpyrazin-2-yl)ethyl]-5-(trifluoromethyl) benzamide]
≥ 80%: percent control (mortality or growth inhibition) at 200 ppm (Euschistus heros) | mortality at 200 ppm [1] | percent control (mortality, anti-feedant effect or growth inhibition) at 200 ppm (Chilo suppressalis) | percent control (mortality or growth inhibition) at 200 ppm (Plutella xylostella [2]) | mortality at 24 ppm (Myzus persicae [3]) | mortality at 12 ppm (Myzus persicae [4])

CC(NC(=O)c1cc(C(F)(F)F)cc(S(=O)(=O)C(F)(F)F)c1)c1nccnc1-c1ncccn1 (stereo not shown) [P19, N-[1-(3-pyrimidin-2-ylpyrazin-2-yl)ethyl]-3-(trifluoromethyl)-5-(trifluoromethylsulfonyl) benzamide]
≥ 80%: percent control (mortality or growth inhibition) at 200 ppm (Diabrotica balteata) | percent control (mortality, anti-feedant effect or growth inhibition) at 200 ppm (Chilo suppressalis) | percent control (mortality or growth inhibition) at 200 ppm (Plutella xylostella [2]) | mortality at 12 ppm (Myzus persicae [4]) | percent control (mortality, anti-feedant effect or growth inhibition) at 200 ppm (Spodoptera littoralis) | mortality at 50 ppm (Myzus persicae [5]) | mortality at 500 ppm (Plutella xylostella [6])

CC(NC(=O)c1cc(C(F)(F)F)cc(C2(C#N)CC2)c1)c1nccnc1-c1ccccn1 (stereo not shown) [P22, 3-(1-cyanocyclopropyl)-N-[1-[3-(2-pyridyl)pyrazin-2-yl]ethyl]-5-(trifluoromethyl) benzamide]
≥ 80%: percent control (mortality or growth inhibition) at 200 ppm (Diabrotica balteata) | percent control (mortality, anti-feedant effect or growth inhibition) at 200 ppm (Chilo suppressalis) | percent control (mortality or growth inhibition) at 200 ppm (Plutella xylostella [2]) | percent control (mortality, anti-feedant effect or growth inhibition) at 200 ppm (Spodoptera littoralis) | mortality at 50 ppm (Myzus persicae [5]) | mortality at 500 ppm (Plutella xylostella [6])

CC(NC(=O)c1cc(C(F)(F)F)cc(C2(C#N)CC2)c1)c1nccnc1-c1ccc(F)cn1 (stereo not shown) [P23, 3-(1-cyanocyclopropyl)-N-[1-[3-(5-fluoro-2-pyridyl)pyrazin-2-yl]ethyl]-5-(trifluoromethyl) benzamide]
≥ 80%: percent control (mortality or growth inhibition) at 200 ppm (Plutella xylostella [2]) | mortality at 50 ppm (Myzus persicae [5]) | mortality at 500 ppm (Plutella xylostella [6])

CC(NC(=O)c1cc(C(F)(F)F)cc(C2(C#N)CC2)c1)c1nccnc1-c1ncccn1 (stereo not shown) [P25, 3-(1-cyanocyclopropyl)-N-[1-(3-pyrimidin-2-ylpyrazin-2-yl)ethyl]-5-(trifluoromethyl)benzamide]
≥ 80%: percent control (mortality or growth inhibition) at 200 ppm (Diabrotica balteata) | percent control (mortality or growth inhibition) at 200 ppm (Euschistus heros) | percent control (mortality, anti-feedant effect or growth inhibition) at 200 ppm (Chilo suppressalis) | percent control (mortality or growth inhibition) at 200 ppm (Plutella xylostella [2]) | mortality at 24 ppm (Myzus persicae [3]) | mortality at 12 ppm (Myzus persicae [4]) | percent control (mortality, anti-feedant effect or growth inhibition) at 200 ppm (Spodoptera littoralis) | mortality at 50 ppm (Myzus persicae [5]) | mortality at 500 ppm (Plutella xylostella [6])

CC(NC(=O)c1cc(C(F)(F)F)nc(C2(C#N)CC2)c1)c1nccnc1-c1ccccn1 (stereo not shown) [P26, 2-(1-cyanocyclopropyl)-N-[1-[3-(2-pyridyl)pyrazin-2-yl]ethyl]-6-(trifluoromethyl)pyridine-4-carboxamide]
≥ 80%: percent control (mortality or growth inhibition) at 200 ppm (Diabrotica balteata) | percent control (mortality, anti-feedant effect or growth inhibition) at 200 ppm (Chilo suppressalis) | percent control (mortality or growth inhibition) at 200 ppm (Plutella xylostella [2]) | percent control (mortality, anti-feedant effect or growth inhibition) at 200 ppm (Spodoptera littoralis) | mortality at 50 ppm (Myzus persicae [5]) | mortality at 500 ppm (Plutella xylostella [6])

CC(NC(=O)c1cc(C2CC2)nc(C(F)(F)F)c1)c1nccnc1-c1ncccn1 (stereo not shown) [P31, 2-cyclopropyl-N-[1-(3-pyrimidin-2-ylpyrazin-2-yl)ethyl]-6-(trifluoromethyl)pyridine-4-carboxamide]
≥ 80%: percent control (mortality or growth inhibition) at 200 ppm (Diabrotica balteata) | percent control (mortality or growth inhibition) at 200 ppm (Euschistus heros) | mortality at 200 ppm [1] | percent control (mortality, anti-feedant effect or growth inhibition) at 200 ppm (Chilo suppressalis) | percent control (mortality or growth inhibition) at 200 ppm (Plutella xylostella [2]) | mortality at 12 ppm (Myzus persicae [4]) | percent control (mortality, anti-feedant effect or growth inhibition) at 200 ppm (Spodoptera littoralis)

CC(NC(=O)c1cc(C(F)(F)F)nc(C2(C#N)CC2)c1)c1nccnc1-c1ncccn1 (stereo not shown) [P32, 2-(1-cyanocyclopropyl)-N-[1-(3-pyrimidin-2-ylpyrazin-2-yl)ethyl]-6-(trifluoromethyl)pyridine-4-carboxamide]
≥ 80%: percent control (mortality or growth inhibition) at 200 ppm (Diabrotica balteata) | percent control (mortality or growth inhibition) at 200 ppm (Euschistus heros) | mortality at 200 ppm [1] | percent control (mortality, anti-feedant effect or growth inhibition) at 200 ppm (Chilo suppressalis) | percent control (mortality or growth inhibition) at 200 ppm (Plutella xylostella [2]) | mortality at 12 ppm (Myzus persicae [4]) | percent control (mortality, anti-feedant effect or growth inhibition) at 200 ppm (Spodoptera littoralis)

CC(NC(=O)c1cc(OC(F)F)cc(C2(C#N)CC2)c1)c1nccnc1-c1ncccn1 (stereo not shown) [P44, 3-(1-cyanocyclopropyl)-5-(difluoromethoxy)-N-[1-(3-pyrimidin-2-ylpyrazin-2-yl)ethyl]benzamide]
≥ 80%: percent control (mortality or growth inhibition) at 200 ppm (Diabrotica balteata) | percent control (mortality or growth inhibition) at 200 ppm (Euschistus heros) | mortality at 200 ppm [1] | percent control (mortality, anti-feedant effect or growth inhibition) at 200 ppm (Chilo suppressalis) | percent control (mortality or growth inhibition) at 200 ppm (Plutella xylostella [2]) | mortality at 200 ppm (Myzus persicae [7]) | mortality at 24 ppm (Myzus persicae [3]) | mortality at 12 ppm (Myzus persicae [4]) | percent control (mortality, anti-feedant effect or growth inhibition) at 200 ppm (Spodoptera littoralis)

CC(NC(=O)c1cc(OC(F)F)cc(S(=O)(=O)C(F)(F)F)c1)c1nccnc1-c1ncccn1 (stereo not shown) [P45, 3-(difluoromethoxy)-N-[1-(3-pyrimidin-2-ylpyrazin-2-yl)ethyl]-5-(trifluoromethylsulfonyl) benzamide]
≥ 80%: percent control (mortality, anti-feedant effect or growth inhibition) at 200 ppm (Chilo suppressalis) | percent control (mortality or growth inhibition) at 200 ppm (Plutella xylostella [2]) | mortality at 200 ppm (Myzus persicae [7]) | percent control (mortality, anti-feedant effect or growth inhibition) at 200 ppm (Spodoptera littoralis)

CC(NC(=O)c1cc(OC(F)(F)F)cc(C2(C#N)CC2)c1)c1nccnc1-c1ncccn1 (stereo not shown) [P46, 3-(1-cyanocyclopropyl)-N-[1-(3-pyrimidin-2-ylpyrazin-2-yl)ethyl]-5-(trifluoromethoxy) benzamide]
≥ 80%: percent control (mortality or growth inhibition) at 200 ppm (Diabrotica balteata) | percent control (mortality or growth inhibition) at 200 ppm (Euschistus heros) | percent control (mortality, anti-feedant effect or growth inhibition) at 200 ppm (Chilo suppressalis) | percent control (mortality or growth inhibition) at 200 ppm (Plutella xylostella [2]) | mortality at 200 ppm (Myzus persicae [7]) | mortality at 24 ppm (Myzus persicae [3]) | mortality at 12 ppm (Myzus persicae [4]) | percent control (mortality, anti-feedant effect or growth inhibition) at 200 ppm (Spodoptera littoralis)

CC(NC(=O)c1cc(C(F)(F)F)cc(C(C)(C)C#N)c1)c1nccnc1-c1ncccn1 (stereo not shown) [P50, 3-(1-cyano-1-methyl-ethyl)-N-[1-(3-pyrimidin-2-ylpyrazin-2-yl)ethyl]-5-(trifluoromethyl)benzamide]
≥ 80%: percent control (mortality or growth inhibition) at 200 ppm (Diabrotica balteata) | percent control (mortality or growth inhibition) at 200 ppm (Euschistus heros) | percent control (mortality, anti-feedant effect or growth inhibition) at 200 ppm (Chilo suppressalis) | percent control (mortality or growth inhibition) at 200 ppm (Plutella xylostella [2]) | mortality at 24 ppm (Myzus persicae [3]) | mortality at 12 ppm (Myzus persicae [4]) | percent control (mortality, anti-feedant effect or growth inhibition) at 200 ppm (Spodoptera littoralis)
